Data reported in patent publication US10259846B2, “Bouvardin derivatives and therapeutic uses thereof” (The Regents of the University of Colorado, a body corporate, priority 2012, dated 2019).
Where two headings read alike, the source gives them in different places.

Key:
[1] = tested on: U87MG glioma cells; assay: Cell growth assay (CellTiter-Glo), U87MG glioma cells; format: cell-based; conditions: single agent; 10 μM and 100 μM; 6 days (FIG. 10)
Description: (§1) Two glioma cell lines were used (U87MG and T98G). The growth inhibitory effects of chemical compounds were evaluated using CellTiter-Glo® Luminescent Cell Viability Assay (Promega G7570). The CellTiter-Glo® Reagent lyses cells and generates a luminescent signal proportional to the amount of ATP present. In this assay, 4,000 viable cells were plated in 100 μL of growth medium in 96-well plates (Corning). Following an overnight incubation, drugs were added in varying concentrations and incubated for 6 days. 100 μL of CellTiter-Glo® Reagent was added to each well. Plates were incubated with mixing at room temperature for 30 minutes. Luminescence of each well was measured using an automated plate reader.

[2] = tested on: T98G glioma cells; assay: Cell growth assay (CellTiter-Glo), T98G glioma cells; format: cell-based; conditions: for inhibitory effects on cell growth: single agent, 10 μM and 100 μM, 6 days (FIG. 11)
Description: as §1

[3] = tested on: rabbit reticulocytes; assay: In vitro translation assay (luciferase mRNA); format: biochemical; conditions: luciferase activity; 15 minutes at 37° C.
Description: In vitro translation assays were performed in rabbit reticulocytes (Promega) according to manufacturer's instruction, in the presence or absence of drug at final concentrations shown. Luciferase mRNA provided in the kit was used at a final concentration of 1 μg/μl. The reaction samples were incubated for 15 minutes at 37° C. and quenched by dilution with water. Luciferase activity was measured using a plate reader Multi-Mode Microplate Reader (Synergy 2 by BioTek) immediately after luciferase substrate addition.

[4] = tested on: HS294T melanoma cells; assay: Clonogenic assay (sulfhorhodamine B), HS294T; format: cell-based, human
Description: HS294T melanoma cells were plated at a low concentration to allow for the formation of single colonies. These cells were then treated with meta Br-N-29-H RA-VII alone, PLX4032 alone and a combination of the two and then processed using the quantitative sulfhorhodamine B assay.

[5] = tested on: A375 (higher grade) melanoma cell line; assay: Cell growth assay IC50, A375 melanoma cell line; format: cell-based, human
Description: as §1, with “Seven cell lines, lung cancer cell line H157, HNC” for “Two glioma”, “lines Det562 and FaDu, and melanoma cell lines WM35, A375, 1205Lu and HS294T” for “lines”, “studied.” for “used (U87MG and T98G).”, “˜4,000” for “4,000”, “reader. Survival was plotted against drug concentration to compute IC50.” for “reader.”
(§2) The ability of bouvardin and meta Br-N-29-H RA-VII to inhibit the growth of Melanoma cells in culture was studied. […] Both compounds show greater efficacy in higher grade, metastatic melanoma cell lines than in a lower grade melanoma line.

[6] = tested on: WM35 (lower grade, radial phase) melanoma cell line; assay: Cell growth assay IC50, WM35 melanoma cell line; format: cell-based, human
Description: as §1, with “Seven cell lines, lung cancer cell line H157, HNC” for “Two glioma”, “lines Det562 and FaDu, and melanoma cell lines WM35, A375, 1205Lu and HS294T” for “lines”, “studied.” for “used (U87MG and T98G).”, “˜4,000” for “4,000”, “reader. Survival was plotted against drug concentration to compute IC50.” for “reader.”
as §2

[7] = tested on: human primary fibroblasts; assay: Bouvardin on primary versus oncogene-transformed human fibroblasts; format: cell-based; conditions: fibroblasts transformed with more and more oncogenes (FIG. 16)
[8] = tested on: mice; conditions: cited from earlier work
[9] = tested on: human primary fibroblasts; conditions: published report (Dolma et al., 2003); cited from earlier work
[10] = tested on: Melanoma cells; assay: Growth inhibition of Melanoma cells in culture, alone and combined; format: cell-based, human
Source text: as §2
Synergy is seen in cell lines with a wide range of sensitivity to PLX4032, i.e. both PLX4032-sensitive and PLX4032-resistant lines.

[11] = tested on: A375 melanoma cells; assay: Exposure-time cell viability assay, A375; format: cell-based, human; conditions: IC70 concentration; viability read after 5 days
Description: (§3) The cell growth assays used to measure IC50 and synergy involve leaving the drug on the cells for 5 days. However, this length of time may or may not be necessary to see efficacy. To address this, two Bouvardin derivatives (meta Br-N-29-H RA-VII and mera Cl-N-29-H RA-VII) were exposed to different melanoma and head and neck cells for various amounts of time. Cells were plated at 4,000 cells per well in 96 well plates and allowed to adhere for 24 hrs before adding meta Br-N-29-H RA-VII or meta Cl-N-29-H RA-VII at an IC70 concentration for each cell line. The drug was removed after various times (12 hr, 1 day, 2 days, 3 days, 4 days) by replacement with fresh media. After 5 days, cell viability was determined using CellTiter-Glo® Luminescent Cell Viability Assay (Promega G7570), which measures ATP levels. Bouvardin or BVD at 12 hr exposure was used as a control. […] While the maximal effect of meta Br-N-29-H RA-VII was not reached at the same time for all of the lines, the drug is affecting each cell line to some degree by 24 hrs.

[12] = tested on: HS294T melanoma cells; assay: Exposure-time cell viability assay, HS294T; format: cell-based, human; conditions: IC70 concentration; viability read after 5 days
Description: as §3

[13] = tested on: 1205Lu melanoma cells; assay: Exposure-time cell viability assay, 1205Lu; format: cell-based, human; conditions: IC70 concentration; viability read after 5 days
Description: as §3

[14] = tested on: Det562 Head and Neck cancer cells; assay: Exposure-time cell viability assay, Det562; format: cell-based, human; conditions: IC70 concentration; viability read after 5 days
Description: as §3

[15] = tested on: FaDu Head and Neck cancer cells; assay: Exposure-time cell viability assay, FaDu; format: cell-based, human; conditions: IC70 concentration; viability read after 5 days
Description: as §3

[16] = tested on: HS294T metastatic melanoma cells; assay: Combination with PLX4032, combination index, HS294T; format: cell-based, human; conditions: combination with PLX4032, wide range of drug concentrations
Source text: The dotted line indicates fraction survival expected if meta Br-N-29-H RA-VII and PLX4032 are act in an additive manner. The observed effect of the combination is […], indicating synergy. This represents a subset of a larger data set that includes the result of a wide range of drug doses. The complete dataset is in FIGS. 16 and 17.
CI of less than 1 indicates synergy, which is seen for a wide range of drug concentrations. […] This illustrates that at doses that show synergy, significant fractions of cells are killed or inhibited from growing.

[17] = tested on: HS294T melanoma cells; assay: Combination with ionizing radiation, combination index, HS294T; format: cell-based, human; conditions: range of drug doses and radiation
Source text: CI values are shown for a range of drug doses and radiation. CI<1 indicates synergy.

[18] = Combination Index from cell growth assays with targeted agents (FIG. 22); format: cell-based; conditions: over a range of FA (fraction affected)
Description: The combinations of meta Br-N-29-H RA-VII and three commercially available targeted agents (PLX4032 BRAF inhibitor, TAK-333 MEK inhibitor and PF-0491502 P13K/TOR dual inhibitor) were tested at various drug doses. Combination Index values were computed from cell growth assays as previously described (Gladstone et al., Disease Models and Mechanisms, 2012, PMID: 22344740). The tables show average CI values for the combination of meta Br-N-29-H RA-VII and each targeted agent. FA=‘fraction affected’ or fraction of cells killed, reflecting the drug doses used. The CI values that indicate three modes on drug-drug interaction are indicated in the legend and differentially shaded in the table. CI˜1 denote additive action (un-shaded). CI>1 denote antagonistic action (darker shade).

[19] = combination of meta Br-N-29-H RA-VII and PLX4032

Compound: COc1ccc(C[C@H](NC(=O)[C@H](Cc2ccc(O)cc2)N(C)C(=O)OC(C)(C)C)C(=O)OCc2ccccc2)cc1Br [Compound 1-7]
- inhibitory effects on cell growth [1]: potent inhibitory effects
- inhibitory effects on cell growth [2]: potent inhibitory effects
- inhibition of protein translation in in vitro translation assay [3]: do not appear to inhibit protein translation

Compound: CCCS(=O)(=O)Nc1ccc(F)c(C(=O)c2c[nH]c3ncc(-c4ccc(Cl)cc4)cc23)c1F [PLX4032, Vemurafenib, reference compound]
- survival compared to untreated cells ([4]; 500 nM, alone): around 60%

Compound: COc1ccc(C[C@H](NC(=O)[C@H](Cc2ccc(O)cc2)N(C)C(=O)OC(C)(C)C)C(=O)OCc2ccccc2)cc1B1OC(C)(C)C(C)(C)O1 [Compound 1-8]
- inhibitory effects on cell growth [1]: potent inhibitory effects
- inhibitory effects on cell growth [2]: potent inhibitory effects
- inhibition of protein translation in in vitro translation assay [3]: do not appear to inhibit protein translation

Compound: bouvardin
- IC50 [5]: 12 nM
- IC50 [6]: 124 nM
- IC, for bouvardin [7]: decreases as human primary fibroblasts are transformed with more and more oncogenes
- LD50 [8]: 12.4 mg/kg
- IC50 in primary human cells versus transformed cells [9]: higher IC50 (lower efficacy) in primary human cells than in transformed cells

Compound: COc1cccc2c1C(=O)c1c(O)c3c(c(O)c1C2=O)C[C@@](O)(C(=O)CO)C[C@@H]3O[C@H]1C[C@H](N)[C@H](O)[C@H](C)O1 [doxorubicin]
- LD50 [8]: 12.5 mg/kg

Compound: COc1ccc(C[C@H]2C(=O)N[C@@H](C)C(=O)N(C)[C@H]3Cc4ccc(cc4)Oc4cc(c(Br)cc4OC)C[C@H](NC3=O)C(=O)N[C@H](C)C(=O)N[C@@H](C)C(=O)N2C)cc1 [meta Br-N-29-H RA-VII]
- response in cell growth assay ([2]; T98G glioma cells (FIG. 12)): dose-dependent response
- inhibition of protein translation in in vitro translation assay [3]: dose-dependent response
- IC50 ([5]; Homo sapiens, A-375): 100 nM
- IC50 ([6]; Homo sapiens): 1170 nM
- times less effective (greater IC50) than bouvardin ([10]; Melanoma cells): 5 to 10 times
- synergy with BRAF inhibitor Vemurafenib (PLX4032) ([10]; combination, PLX4032-sensitive and PLX4032-resistant lines): synergizes best and over a wide range of meta Br-N-29-H RA-VII doses
- exposure time to maximal response (same as 5 day) [11]: 2 to 3 days
- response at 12 hr exposure [11]: partial response
- exposure time to maximal response (same as 5 day) [12]: 3 to 4 days
- response at 12 hr exposure [12]: partial response
- exposure time to maximal response (same as 5 day) [13]: 4 days
- response at 12 hr exposure [13]: partial response
- exposure time to maximal response [14]: 4 days
- response at 12 hr exposure [14]: partial response
- exposure time to maximal response [15]: 4 days
- response at 12 hr exposure [15]: no response
- interaction with PLX4032 (combination index; CI of less than 1 indicates synergy) [16]: synergize
- interaction with ionizing radiation (combination index; CI<1 indicates synergy) [17]: shows synergy
- survival compared to untreated cells ([4]; 20 nM, alone): greater than 90%
- predicted survival if the two treatments were additive [4, 19]: 50%
- survival compared to untreated cells [4, 19]: less than 20%
- interaction (average Combination Index) with PF-0491502 P13K/TOR dual inhibitor [18]: displays synergy
- interaction (average Combination Index) with PLX4032 BRAF inhibitor [18]: displays synergy
- interaction (average Combination Index) with TAK-333 MEK inhibitor [18]: displays synergy

Compound: COc1ccc(C[C@H](NC(=O)[C@H](Cc2ccc(O)cc2)N(C)C(=O)OC(C)(C)C)C(=O)OCc2ccccc2)cc1B(O)O [Compound 1-9]
- inhibitory effects on cell growth [1]: potent inhibitory effects
- inhibitory effects on cell growth [2]: potent inhibitory effects
- inhibition of protein translation in in vitro translation assay [3]: do not appear to inhibit protein translation
